A melting point compilation (Tetko et al.; mined from patent text by program, amines drawn as free bases though some values may be those of a salt)

SMILES	melting point [°C]
C=C(C)c1c(OC)cc(Cc2cnc(N)nc2N)cc1OC	228 to 229
CCOC(=O)c1c(O)nc2c(C(F)(F)F)cccc2c1O	190
O=[N+]([O-])c1ccc(Oc2ccc3c(c2)OCCC3Cl)cc1 (centres undefined)	67 to 68
Clc1cccc(-c2ccc3nncn3n2)c1	175 to 177
CCCCCCCCCCCCCCCC(=O)N[C@@H](CSC(=O)CCCCCCCCCCCCCCC)C(=O)O	82 to 84
COc1cc(OC)c2c(=O)[nH]c(-c3ccc(OCCN4CCCC4)cc3)nc2c1	226 to 227
COc1ccc2nc(-c3ccc(C=C4C(=O)C5(C)CCC4C5(C)C)cc3)[nH]c2c1 (centres undefined)	138 to 142
CN(C)S(=O)(=O)c1cc(S(=O)(=O)N(C)C)c(C(Cl)=C(Cl)Cl)cc1N	238 to 239
O=C(N=CN1CCCCC1)C(O)(C(=O)N=CN1CCCCC1)c1ccc(Cl)c(Cl)c1 (centres undefined)	195
CCOC(=O)CN1CSCCC(N2C(=O)c3ccccc3C2=O)C1=O (centres undefined)	192 to 194
Cc1ncsc1C(C)(O)c1ccsc1 (centres undefined)	149 to 151
C=CCOc1ccc(C[C@@H](NC(C)=O)C(=O)O)cc1	75
N#C/C=C/c1cn(-c2c(Cl)cc(C(F)(F)F)cc2Cl)nc1C#N	144 to 145
CC=Cc1ccccc1Oc1ccc(Oc2ccccc2C=CC)nn1	165 to 168
CN(C)C=NC(=N[N+](=O)[O-])N(C)Cc1ccc(Cl)nc1	85 to 89
CC(C(N)=O)c1ccc2nc(-c3ccccc3)oc2c1 (centres undefined)	193
N#CC=Cc1ccc(CBr)cc1	105 to 107
CC(C)c1nn2ccccc2c1Br	51 to 52
COC(=O)c1nc2cc(OC)ccc2c(O)c1C(=O)OC	202 to 204
CCOC1(OCCc2nc(C(C)C)c(Sc3cc(Cl)cc(Cl)c3)n2C)CCCCCC1	53 to 54

SMILES	melting point [°C]
CSc1oc2ccc(Br)cc2c(=O)c1-c1ccc(Cl)cc1	205 to 206
CN1CCN(Cc2nnc(-c3ccccc3)cc2-c2cccc([N+](=O)[O-])c2)CC1	157 to 159
CCCN1CC(C)CC2c3cccc4[nH]c(SC)c(c34)CC21 (centres undefined)	216 to 219
O=C1NC(=O)C(=Cc2cc(O)c(O)c([N+](=O)[O-])c2)S1	295 to 298
Clc1c2ccccc2nc2c1sc1ccccc12	158 to 159
O=[N+]([O-])c1ccc(CCc2nnco2)cc1	93 to 94
C1=CC(c2ccccc2)Nc2ccccc21 (centres undefined)	75
COc1ccc2c(c1)CCC1C2CCC2(C)C1CCC2N(C=O)CCN(C)C (centres undefined)	98 to 100
Cc1c(C)n(CC=CC(F)(F)F)c2c(OCc3ccccc3)nncc12	138 to 140
Nc1nnc2ccccc2n1	208 to 210
CCCCN1CCCC1Cc1cccc(NC(N)=O)c1 (centres undefined)	80 to 83
COc1ccc2c(C)cc(=O)oc2c1C	162 to 164
CC(CO)Nc1c([N+](=O)[O-])cnc2ccccc12 (centres undefined)	207 to 211
CN1CCN(c2ccc(C(=O)NC3(C(=O)NCC#N)CCCCC3)cc2)CC1	218 to 220
CCOC(=O)c1cn(C2CCCCC2)c2cc(I)ccc2c1=O	169 to 171
Cn1nnc2ccc(C(O)c3ccccc3)cc21 (centres undefined)	145
O=C(O)CCCCCCCCCC=Cc1ccco1	38 to 39
CCOC(=O)C1=C(O)c2cc3cc(OC)ccc3n2CC1	157 to 160
CC(CN(C)C)C(C#N)(c1ccccc1)c1ccccc1 (single isomer, unassigned; (-))	102 to 103
Nc1nc2nc(SCc3ccccc3)nc(Cl)c2s1	217 to 218

SMILES	melting point [°C]
Nc1nc2ccc(CO)cc2o1	148 to 150
Cc1c(C(=O)O)ccc(O)c1O	200 to 201
CCCOc1n[nH]c(=O)n1C1CCCCC1	132 to 136
CC1(C)CC(=O)c2c(SC(C)(C)C)sc(-c3cc[nH]n3)c2C1	220 to 222
C=C(C)COC1CC2C3CCC4=CC(=O)CCC4(C)C3(F)C(O)CC2(C)C1(O)C(=O)CO (centres undefined)	213 to 215
C=CCN1CC(C)N(C(c2ccsc2)c2cccc(O)c2)CC1C (centres undefined)	140 to 142
CC(C)c1cc(-c2ccc(F)cc2)n(-c2ncccn2)n1	102 to 103
Nc1nc(=O)n(CCCCI)cc1F	181 to 184
COc1ccc(N2CCN(c3c(C)c(C)c4c(c3C)C(O)(C3CCCCC3)C(C)(C)O4)CC2)cc1 (centres undefined)	166 to 167
COc1cc(Cc2cnc(N)nc2N)cc(OC)c1N	209 to 210
Cn1c(Br)nc2c1C(=O)N1CCN=C1N2Cc1ccc(Cl)cc1	206 to 207
COc1cccc(-c2ccc3c(c2)C(C)(C)C(=O)N3)c1	157 to 158
FC(F)(F)c1cc(NC(=S)N[C@@H]2CCCC[C@H]2NCc2ccccc2)cc(C(F)(F)F)c1	140 to 141
Cc1cc(C)n2nc(S(=O)(=O)Cl)nc2c1	125 to 126
CCCCCCCCCCCCn1nnc(C(C(=O)Nc2c(C(C)C)cccc2C(C)C)N2CCSCC2)n1 (centres undefined)	97 to 98
COc1ccc2c(c1)C(n1cc[nH]c1=S)CCC2 (centres undefined)	142 to 143
CCOC(=O)Nc1cccc(N2CCN(CCC3CCN(CC(C)=O)CC3)CC2)c1	118
CS(=O)(=O)c1ccc(C(CC2CCCC2)C(=O)Nc2ccc(Br)cn2)cc1Br (centres undefined)	83 to 86
CCCCCCCCCCC1CCCC1C(=O)Nc1cccc2ncccc12 (centres undefined)	75

Continued, values first:

melting point [°C]	SMILES
97 to 99	ClCc1nc(NCc2ccccn2)c2c(-c3ccccc3)csc2n1
210 to 213	Cc1[nH]c2ccc(S(=O)(=O)c3ccccc3)cc2c1CCNC(=O)OC(C)(C)C
238 to 240	CC(C)(C)Sc1c(CC(C)(C)C(=O)O)n(Cc2ccc(Cl)cc2)c2ccc(OCc3ccncc3)cc12
88 to 89	O=C(O)CCCCCC=C(c1ccccc1)c1ccccc1
101 to 103	CC(C)(C)O[C@@H]1C[C@@H](COCc2ccccc2)N(S(=O)(=O)c2ccc3ccccc3c2)C1
93 to 94	CC(C)(C)NCC(O)COc1ccccc1-c1ccc(Cl)nn1 (centres undefined)
197 to 200	CCNC(=O)Nc1cn(-c2cccnc2)nc1C
130 to 131	N#CCCNC(=O)c1cccc(-c2ccc3c(c2)C(c2ccc(Cl)cc2Cl)CO3)c1 (centres undefined)
232 to 234	COc1ccc2nc3c(c(Cl)c2c1)C(=O)c1ccccc1-3
158 to 163	O=C(O)CCc1ccc(OCCn2c(=O)sc3cc(Cc4ccccc4)ccc32)cc1
68 to 70	O=C(CCCOCCc1ccc2ccccc2c1)c1ccc(F)cc1
196 to 198	CCOCc1cc(OC)c(-c2ccc(C[C@H](NC(=O)c3c(Cl)cccc3Cl)C(=O)O)cc2)c(OC)c1
194 to 196	CS(=O)(=O)c1ccc(-n2cc(-c3cccc(F)c3)nc2-c2ccc(Cl)cc2)cc1
157 to 158	NC(=O)CNC(=O)c1cccc(-c2ccc(F)c3cc(Cc4cccc(C(F)(F)F)c4)sc23)c1
131 to 132	O=S(=O)(Nc1ccccc1OCCCN1CCC(OC(c2ccccc2)c2ccccc2)CC1)c1ccccc1
174 to 180	O=C(O)C(c1ccc(F)cc1)N1C(=O)c2ccccc2C1=O (centres undefined)
119 to 121	Fc1ccc(-n2ccc3cc(-c4ccccn4)ccc32)cc1
325 to 327	O=C(O)c1cccc2cc3ccc(Cl)cc3c(C(=O)O)c12
99 to 102	CCOC(=O)c1cc(=O)c2c(OCC(O)COc3ccc(C(C)(C)C)cc3)cccc2o1 (centres undefined)
224 to 225	Cc1cc(-c2nc3cccnn3c2-c2ccnc(NC(=O)c3ccnc(Cl)c3)c2)ccc1F

melting point [°C]	SMILES
150 to 153	CCOC(=O)C(=CNc1ncc(OC)c2ccccc12)C(=O)OCC
156 to 160	CS(=O)(=O)c1ccc(-n2nc(C(F)(F)F)cc2-c2ccc(-c3ccco3)cc2F)cc1F
133 to 136	COCOc1cc(Cl)ccc1-c1cc(-c2cccc(C(=O)NCC3CCCCN3C(=O)OC(C)(C)C)c2)c(C#N)c(NC(=O)c2ccco2)n1 (centres undefined)
122 to 124	CC1(C)CC(=C(c2ccc(O)cc2)c2ccc(OCCOCCO)cc2)CC(C)(C)C1
183 to 193	O=C(Nc1cccc2cc(Br)cnc12)c1ccc(O)c(O)c1O
195 to 196	Cc1ccc(C(=O)NCCO)cc1-n1c(C)cc(OCc2ccccc2CNC(=O)Nc2cc(C(C)(C)C)nn2-c2ccc(O)c(Cl)c2)c(Cl)c1=O
205 to 210	COc1ccc(C(=N)NS(=O)(=O)C=Cc2ccc(Cl)c(Cl)c2)cc1OC
> 300	COc1ccc(-c2[nH]nc3c2C(=O)c2c(NC(=O)Cc4ccc(NC(=O)CN(C)C)cc4)cccc2-3)cc1
200 to 202	O=C(Nc1cc2ncc(CN3CCCC3)cc2cc1F)c1ccc(-c2ccc(F)cc2)cc1F
102	CCCOc1ccc(C=CC(=O)c2c(OC)cc(OC)cc2OC(=O)CC)cc1
161 to 164	Cc1c(SCc2ccsc2)ccnc1CSc1nc2ccccc2[nH]1
255 to 257	O=c1c2ccc(Cl)cc2[nH]c2c(O)nn(CC#Cc3ccccc3Cl)c(=O)c12
144 to 147	COc1cc(C(C)C(=O)O)cc2ccc3ccccc3c(=O)c12 (centres undefined)
149 to 150	COc1cc(C(C)C)c2c(c1)S(=O)(=O)N(COc1cc(C(F)(F)F)nn1-c1cccc(C(F)(F)F)n1)C2=O
90 to 92	CC(C)(CC(=O)O)SC(CCCc1ccccc1)c1ccc(OCc2ccc3ccccc3n2)cc1 (centres undefined)
201 to 203	COc1ccc(COc2cc3c(cc2-c2cc(C=CC(=O)O)ccc2OC)C(C)(C)CCC3(C)C)cc1
165 to 166	CNC(=O)C(=NOC)c1ccccc1COc1ncc(C)cc1C(=O)OC(C)C
62 to 64.5	O=C(O)CCc1ccc(CC(=O)OCc2ccccc2)cc1
75	CC(C(=O)OCc1ccccc1)c1cccc(NC(=O)NCC(=O)N2[C@@H](c3ccccc3)CC[C@H]2C(=O)OC(C)(C)C)c1 (some centres undefined)
114 to 116	CC(=O)NCCCC(=O)c1ccc(Cl)cc1C(CC(=O)O)c1ccccc1 (centres undefined)
